# Publication PMC9088311, “Cyclic Thiosulfonates for Thiol-Mediated Uptake: Cascade Exchangers, Transporters, Inhibitors” (JACS Au, 2022)
# Where “and” joins values, the source holds several entries; their conditions need not be identical. Identical values can stand only once. Like-named read-outs stand apart in the source and are kept apart here.
# Columns and labels:
# HK cells, transporter 28 = assay: HCHT imaging: inhibition of cytosolic delivery of CTO transporter 28; assay type: cell-based, Human; conditions: inhibitor 1 h; for IC15: read-out: MIC (concentration needed to reach 15% inhibition), transporter 28 5 μM
# Protocol: (§1) Uptake inhibition was measured by the automated HCHT imaging used already to elaborate on cytosolic delivery. For inhibitor screening, HK cells in multiwell plates were incubated with increasing concentrations of inhibitors, followed by fluorescent transporters 28, 31, and 32 at a constant concentration. […] If inhibitors are removed before the addition of transporters 28, 31, and 32, the method is referred to as “pre-incubation”. This is of interest to minimize exchange between the transporter and the inhibitor but is often problematic because dynamic covalent exchange between the inhibitor and cellular target can also be reversed and thus lost. The complementary “co-incubation” operates without inhibitor removal before the addition of transporters 28, 31, and 32.
# (§2) 536/40 nm emission filter, and red with 531/40 nm excitation filter and 593/40 nm emission […]
# (§3) 4.3. HCHT Inhibitor Screening
# (§4) Pre-Incubation Method. As in ref. S1. HeLa Kyoto cells were seeded at 8 ×10^4 cells/mL in FluoroBrite DMEM + 10% FBS on μ-Plate 96-well Black ibiTreat sterile and incubated at 37 °C with 5% CO 2 for 24 h. Then, the medium was removed and cells were washed with PBS ([…]), fresh FluoroBrite DMEM medium (4 × 150 μL/well) was added into the cells using a plate washer (Biotek EL406®), keeping a final volume of 135 μL/well. Different concentrations of the inhibitors were prepared by serial dilution with 10% final concentration DMSO (10× in PBS). The solution of compounds 4 and 33 was prepared final DMSO concentration of 10% in each dilution (10× in PBS). These inhibitor solutions (10× final concentration), transporter 28 (10× in DMEM), transporters 31 and 32 (10× in PBS) a solution of HOE (100 μg/mL) and PI (10 μg/mL) in PBS were prepared freshly in a 96-well V-bottom plate before adding to the cells. The inhibitor solutions from the V-bottom plate were added to the cells (15 μL/well) in a final volume of 150 μL/well using an electronic multichannel pipette and cells were incubated for 1 h at 37 °C with 5% CO 2. After this incubation, cells were washed again with PBS and DMEM using the plate washer (in the way mentioned above), and transporter 28 , 31 or 32 from the V-bottom plate was added (15 μL/well) to the cells in a final volume of 150 μL/well. A final concentration of each transporter 28 , 31 and 32 was 5 μM, 10 μM and 0.5 μM, respectively, except for the control wells, where only PBS was added (15 μL/well). Cells treated with transporter 28 or 31 were incubated for 30 min, and cells treated with 32 were incubated for 2 h at 37 °C with 5% CO 2. After that, the cells were washed with PBS and DMEM using the plate washer, and the solution of Hoechst 33342 and PI from the V-bottom plate was added (15 μL/well) to the cells in a final volume of 150 μL/well. After 15 min of incubation at 37 °C with 5% CO 2, the cells were washed and kept in clean FluoroBrite
# (§5) DMEM. For live cell imaging, samples were kept at 37 °C with 5% CO 2 during the microscope imaging. The distribution of fluorescence stained cells was analyzed without fixing using an […]
# HeLa Kyoto cells = assay: Relative viability (HOE/PI) in HCHT screening
# Protocol: One advantage of HCHT imaging of cellular uptake compared to flow cytometry[38],[42],[43] is that it simultaneously gives information on toxicity and intracellular localization. […] Information on the intracellular localization of reporters can be quantified through segmentation of cellular compartments stained with specific markers.[52]
# as §1
# Relative cell viability ( RV) for each condition in the presence of inhibitors was calculated […]
# of the relative cell viability ( RVrel) to the concentration of inhibitors ( cinhibitor ) was plotted and fitted with Equation (S19) to retrieve the concentration causing 50% cell growth inhibition (RV50) value and the Hill coefficient ( n).
# trypsin = assay: Trypsin inhibition (preliminary, not shown); assay type: biochemical; conditions: 10 μM; preliminary results, not shown
# cathepsin L = cathepsin L (Homo sapiens, UniProt P07711); assay: Cathepsin L inhibition (preliminary, not shown); assay type: biochemical; conditions: 10 μM; preliminary results
# cathepsin B = cathepsin B (Homo sapiens, UniProt P07858); assay: Cathepsin B inhibition (preliminary, not shown); assay type: biochemical; conditions: 10 μM; preliminary results
# in vitro = conditions: human
# [1] = Dynamic covalent ring opening with thiol 10, 1H NMR kinetics; assay type: physicochemical; conditions: pD 2.7
# Protocol: The dynamic covalent opening of CTO 3 with thiols yields product 9 with a disulfide and a sulfinate (Figure 3B). Consistent with short chalcogen bonds found in silico, the opening of CTO 3 was instantaneous on an NMR timescale with most thiols. To decelerate ring opening, bulky thiols were considered in combination with lowered pH to deactivate the nucleophile. With N-Ac-D-penicillamine 10, the opening of 5 mM CTO 3 in phosphate buffer/DMSO-d6 9:1 was still immediate at pD 6.7 but became detectable in ^1H NMR spectroscopy kinetics under more acidic conditions. The ring-opening rate constants k^O were estimated by fitting the initial velocities to second-order kinetics. Only lower bound rates were approximated from the earliest determined substrate conversions when reactions were still too fast despite the unfavorable conditions. At pD 5.4, dynamic covalent ring opening of CTO 3 with equimolar tertiary thiol 10 occurred with k^O > 0.49 M^–1 s^–1 and equilibrated at K = 6.0 × 10^3 M^–1 (Table 1, entry 1, Figures S4 and S5). At pD 2.7, further deceleration to k^O = 0.10 M^–1 s^–1 shifted the equilibrium to K = 500 M^–1 (Table 1, entry 2, Figures S6 and S7). […] At equilibrium, the concentration of thiol 10 further decreased slowly due to oxidation into the homodimer (Figure 3C, diamonds).
# Equilibrium constants for reactions with two reactants A and B and a product C are […]
# 3.1.1. Dynamic Covalent Ring Opening with Thiols
# General procedure A (at 5 mM): To a solution of deuterated sodium phosphate (200 mM in D 2O, pD 2.7 or 5.4, 180 mM final concentration), a stock solution of substrate (0.10 M in DMSO-d6, 5.0 mM final concentration) was added and stirred. Then a stock solution of 10 (0.10 M in DMSO- d6, 5.0 mM final concentration) was added and vigorously stirred at room temperature. The solution was transferred immediately to an NMR tube and NMR data were recorded repeatedly. The concentration of the substrate or thiol at each time plot was calculated by comparing the integrals of the peaks indicated with arrows in the figures, and plotted. The data points were fitted to obtain k1 with the Equation (S6) or (S7) using Graphpad Prism.
# General procedure B (at 2 mM): To a solution of deuterated sodium phosphate (200 mM in D 2O, pD 2.7 or 5.4, 180 mM final concentration), DMSO- d6 (10% DMSO- d6 in the reaction mixture) and a stock solution of substrate (0.10 M in DMSO- d6, 2.0 mM final concentration) were added and stirred. Then a stock solution of 10 (0.10 M in DMSO- d6, 2.0 mM final concentration) was added and vigorously stirred at room temperature. The solution was transferred immediately to an NMR tube and NMR data were recorded repeatedly. The concentration of the substrate or thiol at each time plot was calculated by comparing the integrals of the peaks indicated with arrows in the figures, and plotted. The data points were fitted to obtain k1 with the Equation (S6) or (S7) using Graphpad Prism.
# General procedure C (for thiosulfinates): To a solution of deuterated sodium phosphate (200 mM in D 2O, pD 5.4, 170 mM final concentration), a stock solution of substrate (0.10 M in DMSO- d6, 5.0 mM final concentration) was added and stirred. Then a stock solution of 10 (0.10 M in DMSO- d6, 10 mM final concentration) was added and vigorously stirred at room […]
# data points were fitted to obtain k1 with the Equation (S14) or (S16) using Graphpad Prism. […]
# 3.1.2. Dependence of Ring Opening on Proticity
# A mixture of deuterated phosphoric acid and NaOD (30% in D 2O), which gave pD 2.7 in D2O, was used as buffer in all solvent mixtures. To a solution of deuterated sodium phosphate (20 mM final concentration) in a mixture of D 2O and DMSO- d6 (540 μL, final D 2O content: […]
# concentration) was added and stirred. Then a stock solution of 10 (0.10 M in DMSO- d6, 5.0 mM final concentration) was added and vigorously stirred at room temperature. The solution was transferred immediately to an NMR tube and 1H NMR data were recorded repeatedly. […]
# HK cells, transporter 31 = assay: HCHT imaging: inhibition of cytosolic delivery of ETP transporter 31; assay type: cell-based, Human; conditions: inhibitor 1 h; for IC50 / IC15: Homo sapiens; for IC50: read-out: IC50 (concentration needed to reach 50% inhibition), transporter 31 10 μM; for IC15: read-out: MIC (concentration needed to reach 15% inhibition), transporter 31 10 μM; for MIC (concentration needed to reach 15% inhibition): transporter 31 10 μM
# Protocol: as §1, §2, §3, §4, §5
# HK cells, transporter 32 = test system: HK cells, transporter 32; parameters: method as in PMID 34173696; key to inhibition of OPS 32 uptake (heatmap): –: −: inactive; ++: qualitative inhibition of SC2 uptake; conditions: cited from earlier work
# [2] = Homo sapiens, 1 h, read-out: IC50 (concentration needed to reach 50% inhibition), transporter 28 5 μM, co-incubation (C)
# [3] = Homo sapiens, 1 h, co-incubation (C)
# [4] = with transporter 28, co-incubation (C)
# [5] = transporter 28 5 μM, co-incubation (C)
# [6] = Homo sapiens, 1 h, pre-incubation (P)
# [7] = Homo sapiens, read-out: IC50 (concentration needed to reach 50% inhibition), transporter 28 5 μM, pre-incubation (P)
# [8] = transporter 28 5 μM, pre-incubation (P)
# Sequence of cathepsin L (P07711 114-333, species assumed): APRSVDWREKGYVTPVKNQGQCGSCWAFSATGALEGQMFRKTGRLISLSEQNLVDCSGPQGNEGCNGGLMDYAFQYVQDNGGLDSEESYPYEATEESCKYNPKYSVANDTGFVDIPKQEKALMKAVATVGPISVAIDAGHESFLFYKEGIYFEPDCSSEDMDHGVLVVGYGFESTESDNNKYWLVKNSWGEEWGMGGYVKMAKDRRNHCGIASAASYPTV
SMILES,"IC50 (HK cells, transporter 28; [2]) [µM]","IC15 (HK cells, transporter 28; [3]) [µM]",RV50 (concentration needed to lower relative viability by 50%) (HeLa Kyoto cells; [4]) [µM],"viability at 7 h, 10 µM (in vitro) [%]","IC50 (HK cells, transporter 31; 1 h, co-incubation (C)) [µM]","IC15 (HK cells, transporter 31; 1 h, co-incubation (C)) [µM]","viability at 7 h, 5 µM (in vitro) [%]","MIC (concentration needed to reach 15% inhibition) (HK cells, transporter 28; [5]) [µM]","IC15 (HK cells, transporter 28; [6]) [µM]","IC50 (HK cells, transporter 28; [7]) [µM]","MIC (concentration needed to reach 15% inhibition) (HK cells, transporter 28; [8]) [µM]",other results
CC(C)(C)[Si](C)(C)OC1CS(=O)(=O)SCC1OC(=O)NCCCCCCNC(=O)OC1CSS(=O)(=O)CC1O[Si](C)(C)C(C)(C)C (centres unmarked) [Compound 4],16 ± 7,0.3,>5,103,,,,,,,,"IC50 (HK cells, transporter 28; read-out: IC50 (concentration needed to reach 50% inhibition), transporter 28 5 μM, co-incubation (C)): ~15 µM; inhibition of trypsin (trypsin): > 80%; inhibition of cathepsin L (in words) (cathepsin L): neither cathepsin L nor B; inhibition of cathepsin B (in words) (cathepsin B): neither cathepsin L nor B"
CC1(C)O[C@H]2CSS(=O)(=O)C[C@H]2O1 [Compound 13],,,,,> 10,> 10,125 ± 5,,,,,"k^O, rate constant of ring opening (or equivalent for acyclic controls) ([1]; equimolar 10, rt, 90% D2O, Na+ phosphate 180 mM, substrate 2 mM): 2.3 M^–1 s^–1; krel^O, rate constant of ring opening relative to 3 ([1]; 90% D2O, 2 mM): 23; ring-opening rate relative to acyclic control 14 (fold) ([1]; with thiol 10, 2 mM): about 4 ×; RV50 (concentration needed to lower relative viability by 50%) (HeLa Kyoto cells; with transporter 31, co-incubation (C)): 29 ± 6 µM"
O=C(NCCCCCCNC(=O)O[C@H]1CSS(=O)(=O)C[C@H]1OCc1ccccc1)O[C@H]1CSS(=O)(=O)C[C@H]1OCc1ccccc1 [Compound 33],> 5,1.3,>5,107,,,,1,,,,
O=C(NCCCCCCNC(=O)O[C@H]1CSS(=O)(=O)C[C@H]1O)O[C@H]1CSS(=O)(=O)C[C@H]1O [Compound 41],8,1,>50,,,,100,1,,,,
CC(C)(C)[Si](C)(C)O[C@H]1CS(=O)(=O)SC[C@H]1OC(=O)NCCNC(=O)CC(O)(CC(=O)NCCNC(=O)O[C@H]1CSS(=O)(=O)C[C@H]1O[Si](C)(C)C(C)(C)C)C(=O)NCCNC(=O)O[C@@H]1CSS(=O)(=O)C[C@@H]1O[Si](C)(C)C(C)(C)C (some centres unmarked) [Compound 42],,,,107,,,,,1.8,5.1 ± 0.4,2,"IC50 (HK cells, transporter 28; read-out: IC50 (concentration needed to reach 50% inhibition), transporter 28 5 μM, pre-incubation (P)): 5 µM; RV50 (concentration needed to lower relative viability by 50%) (HeLa Kyoto cells; with transporter 28, pre-incubation (P)): 22 ± 3 µM and 22 µM"
"O=C(O)Cn1[se]c2ccccc2c1=O [Compound 45, reference compound]",,,,,8,2.2,,,1.2,8,1,"IC15 (HK cells, transporter 31; 1 h, pre-incubation (P)): < 1 µM; IC50 (HK cells, transporter 31; pre-incubation (P)): 10 µM; MIC (concentration needed to reach 15% inhibition) (HK cells, transporter 31; co-incubation (C)): 2 µM; MIC (concentration needed to reach 15% inhibition) (HK cells, transporter 31; pre-incubation (P)): <1 µM; inhibition of OPS 32 uptake (heatmap) (HK cells, transporter 32; pre-incubation conditions): –; IC50 (HK cells, transporter 32; read-out: IC50 (concentration needed to reach 50% inhibition), transporter 32 0.5 or 1 μM, pre-incubation (P)): > 100 µM; MIC (concentration needed to reach 15% inhibition) (HK cells, transporter 32; transporter 32 0.5 or 1 μM, pre-incubation (P)): >100 µM; viability at 7 h, 50 µM (in vitro): 81%"
